Results reported in US11236081B2, “Crystalline salts of corydalmine” (priority 2018, dated 2022).
Several values for one entry are separate records, joined by “and”; a condition that tells them apart may be missing. Identical values can stand only once.

Assays:
[1] = Pharmacokinetic study: plasma concentration and plasma PK parameters after IV/PO dosing (LC-MS/MS, WinNonlin); assay type: in vivo, Male SD Rat; conditions: for AUCInf / AUClast / AUClast/D / AUC—% Extrap_obs / Cmax / MRTInf_obs / T1/2 / Tmax / AUCInf, Mean / AUClast, Mean / AUClast/D, Mean / AUC—% Extrap_obs, Mean / Cmax, Mean / MRTInf_obs, Mean / T1/2, Mean / Tmax, Mean: plasma
Excerpt: Pharmacokinetic and Brain Penetration Study
Dose formulation processing during dosing: The dose formulations will be kept at room temperature.
Concentrations of Test Article in the plasma samples will be analyzed using a LC-MS/MS method.
WinNonlin (Phoenix™, version 6.1) or other similar software will be used for pharmacokinetic calculations. The following pharmacokinetic parameters will be calculated, whenever possible from the plasma concentration versus time data:
IV administration: T1/2, C0, AUClast, AUCinf, MRTinf, Cl, Vss, Number of Points for Regression.
PO administration: T1/2, Cmax, Tmax, MRTinf, AUCinf, AUClast, F %, Number of Points for Regression.
The pharmacokinetic data will be described using descriptive statistics such as mean, standard deviation.

[2] = Solubility studies in water at 2 hours; assay type: physicochemical
[3] = Dynamic vapor sorption (DVS), hygroscopicity at 25° C.; assay type: physicochemical; conditions: for hygroscopicity (DVS) / water absorbed in DVS: 25° C.; for water absorbed in DVS: at 80% RH
Procedure: Dynamic Vapor Sorption (DVS)
DVS was determined using DVS Intrinsic (SMS, UK). Transfer about 20 to 50 mg of the compound into a SMS dynamic vapor sorption model DVS and record the weight change with respect to a varying atmospheric humidity at 25° C.

[4] = male SD rat, PO 10 mg/kg (equal to freebase), 0 h, individual rats, vehicle 20% HP-β-CD in water (POA, freebase) or water (salts)
[5] = male SD rat, PO 10 mg/kg (equal to freebase), 0.25 h, individual rats, vehicle 20% HP-β-CD in water (POA, freebase) or water (salts), 10 mg/kg
[6] = male SD rat, PO 10 mg/kg (equal to freebase), 0.25 h, mean n=3, vehicle 20% HP-β-CD in water (POA, freebase) or water (salts)
[7] = male SD rat, PO 10 mg/kg (equal to freebase), 0.5 h, individual rats, vehicle 20% HP-β-CD in water (POA, freebase) or water (salts), 10 mg/kg
[8] = male SD rat, PO 10 mg/kg (equal to freebase), 0.5 h, mean n=3, vehicle 20% HP-β-CD in water (POA, freebase) or water (salts)
[9] = male SD rat, PO 10 mg/kg (equal to freebase), 1 h, individual rats, vehicle 20% HP-β-CD in water (POA, freebase) or water (salts), 10 mg/kg
[10] = male SD rat, PO 10 mg/kg (equal to freebase), 1 h, mean n=3, vehicle 20% HP-β-CD in water (POA, freebase) or water (salts)
[11] = male SD rat, PO 10 mg/kg (equal to freebase), 2 h, individual rats, vehicle 20% HP-β-CD in water (POA, freebase) or water (salts), 10 mg/kg
[12] = male SD rat, PO 10 mg/kg (equal to freebase), 2 h, mean n=3, vehicle 20% HP-β-CD in water (POA, freebase) or water (salts)
[13] = male SD rat, PO 10 mg/kg (equal to freebase), 4 h, individual rats, vehicle 20% HP-β-CD in water (POA, freebase) or water (salts), 10 mg/kg
[14] = male SD rat, PO 10 mg/kg (equal to freebase), 4 h, mean n=3, vehicle 20% HP-β-CD in water (POA, freebase) or water (salts)
[15] = male SD rat, PO 10 mg/kg (equal to freebase), 8 h, individual rats, vehicle 20% HP-β-CD in water (POA, freebase) or water (salts), 10 mg/kg
[16] = male SD rat, PO 10 mg/kg (equal to freebase), 8 h, mean n=3, vehicle 20% HP-β-CD in water (POA, freebase) or water (salts)
[17] = male SD rat, PO 10 mg/kg (equal to freebase), 24 h, individual rats, vehicle 20% HP-β-CD in water (POA, freebase) or water (salts)
[18] = male SD rat, PO 10 mg/kg (equal to freebase), individual rats, vehicle 20% HP-β-CD in water (POA, freebase) or water (salts), 10 mg/kg
[19] = male SD rat, PO 10 mg/kg (equal to freebase), mean n=3, vehicle 20% HP-β-CD in water (POA, freebase) or water (salts)
[20] = PO (group POE), 10 mg/kg, individual rats R40, R41, R42, 10 mg/kg
[21] = PO (group POE), 10 mg/kg, mean of R40-R42

With `COc1cc2c(cc1OC)[C@@H]1Cc3ccc(O)c(OC)c3CN1CC2.O=C(O)/C=C\C(=O)O` [TLZ-16 maleate] the F ([1]; male SD rat, PO 10 mg/kg (equal to freebase) vs IV 3 mg/kg freebase, individual rats, vehicle 20% HP-β-CD in water (POA, freebase) or water (salts)) was 21.7% and 33.4% and 21.3%, the “F, Mean” value ([1]; male SD rat, PO 10 mg/kg (equal to freebase) vs IV 3 mg/kg freebase, mean n=3, vehicle 20% HP-β-CD in water (POA, freebase) or water (salts)) was 25.5% and the concentration in plasma [1, 4] was “BLOQ (BLOQ = below limit of quantitation (0.2 ng/mL))”. For the same compound, the concentration in plasma [1, 5] was 138 ng/mL and 257 ng/mL and 438 ng/mL, the “concentration in plasma, Mean” value [1, 6] was 278 ng/mL and the concentration in plasma [1, 7] was 132 ng/mL and 290 ng/mL and 287 ng/mL. For the same compound, the “concentration in plasma, Mean” value [1, 8] was 236 ng/mL, the concentration in plasma [1, 9] was 118 ng/mL and 206 ng/mL and 176 ng/mL and the “concentration in plasma, Mean” value [1, 10] was 167 ng/mL. For the same compound, the concentration in plasma [1, 11] was 106 ng/mL and 175 ng/mL and 55.8 ng/mL, the “concentration in plasma, Mean” value [1, 12] was 112 ng/mL and the concentration in plasma [1, 13] was 104 ng/mL and 116 ng/mL and 69.3 ng/mL. For the same compound, the “concentration in plasma, Mean” value [1, 14] was 96.4 ng/mL, the concentration in plasma [1, 15] was 40.8 ng/mL and 34.5 ng/mL and 34.1 ng/mL and the “concentration in plasma, Mean” value [1, 16] was 36.5 ng/mL. For the same compound, the concentration in plasma [1, 17] was “BLOQ (BLOQ = below limit of quantitation (0.2 ng/mL))”, the AUCInf [1, 18] was 965 ng·h/mL and 1132 ng·h/mL and 898 ng·h/mL and the AUClast [1, 18] was 725 ng·h/mL and 1007 ng·h/mL and 709 ng·h/mL. For the same compound, the AUClast/D [1, 18] was 72.5 kg·ng·h/mL/mg and 101 kg·ng·h/mL/mg and 70.9 kg·ng·h/mL/mg, the “AUC—% Extrap_obs” value [1, 18] was 24.9% and 11.1% and 21.0% and the Cmax [1, 18] was 138 ng/mL and 290 ng/mL and 438 ng/mL. The MRTInf_obs [1, 18] was 5.88 h and 3.67 h and 4.80 h, the T1/2 [1, 18] was 4.08 h and 2.52 h and 3.83 h and the Tmax [1, 18] was 0.25 h (2×) and 0.5 h. For the same compound, the “AUCInf, Mean” value [1, 19] was 998 ng·h/mL, the “AUClast, Mean” value [1, 19] was 814 ng·h/mL and the AUClast/D, Mean [1, 19] was 81 kg·ng·h/mL/mg. For the same compound, the “AUC—% Extrap_obs, Mean” value [1, 19] was 19.0%, the “Cmax, Mean” value [1, 19] was 289 ng/mL and the “MRTInf_obs, Mean” value [1, 19] was 4.78 h. The “T1/2, Mean” value [1, 19] was 3.48 h, the “Tmax, Mean” value [1, 19] was 0.333 h and the solubility in water [2] was “approximately 11.0 mg/mL”. For the same compound, the “hygroscopicity (DVS)” value [3] was “slightly hygroscopic”, the “solid form after DVS test” value [3] was “does not change” and the “water absorbed in DVS” value [3] was “about 0.085 wt %”.
With `COc1cc2c(cc1OC)[C@@H]1Cc3ccc(O)c(OC)c3CN1CC2.O=C(O)C(=O)O` [TLZ-16 oxalate] the F [1, 20] was 18.5% and 28.8% and 25.3%, the “F, Mean” value [1, 21] was 24.2% and the concentration in plasma [1, 4] was “BLOQ (BLOQ = below limit of quantitation (0.2 ng/mL))”. The concentration in plasma [1, 5] was 302 ng/mL and 368 ng/mL and 131 ng/mL, the “concentration in plasma, Mean” value [1, 6] was 267 ng/mL and the concentration in plasma [1, 7] was 270 ng/mL and 309 ng/mL and 148 ng/mL. The “concentration in plasma, Mean” value [1, 8] was 242 ng/mL, the concentration in plasma [1, 9] was 143 ng/mL and 200 ng/mL and 121 ng/mL and the “concentration in plasma, Mean” value [1, 10] was 155 ng/mL. The concentration in plasma [1, 11] was 70.8 ng/mL and 86.0 ng/mL and 156 ng/mL, the “concentration in plasma, Mean” value [1, 12] was 104 ng/mL and the concentration in plasma [1, 13] was 63.1 ng/mL and 120 ng/mL and 95.0 ng/mL. The “concentration in plasma, Mean” value [1, 14] was 92.7 ng/mL, the concentration in plasma [1, 15] was 10.1 ng/mL and 56.8 ng/mL and 29.1 ng/mL and the “concentration in plasma, Mean” value [1, 16] was 32.0 ng/mL. The concentration in plasma [1, 17] was “BLOQ (BLOQ = below limit of quantitation (0.2 ng/mL))”, the AUCInf [1, 20] was 629 ng·h/mL and 1369 ng·h/mL and 859 ng·h/mL and the AUClast [1, 20] was 600 ng·h/mL and 960 ng·h/mL and 756 ng·h/mL. For the same compound, the AUClast/D [1, 20] was 60 kg·ng·h/mL/mg and 96 kg·ng·h/mL/mg and 75.6 kg·ng·h/mL/mg, the “AUC—% Extrap_obs” value [1, 20] was 4.67% and 29.8% and 12.0% and the Cmax [1, 20] was 302 ng/mL and 368 ng/mL and 156 ng/mL. The MRTInf_obs [1, 20] was 2.59 h and 6.60 h and 3.95 h, the T1/2 [1, 20] was 2.02 h and 4.98 h and 2.46 h and the Tmax [1, 20] was 0.25 h (2×) and 2 h. The “AUCInf, Mean” value [1, 21] was 952 ng·h/mL, the “AUClast, Mean” value [1, 21] was 772 ng·h/mL and the AUClast/D, Mean [1, 21] was 77.2 kg·ng·h/mL/mg. For the same compound, the “AUC—% Extrap_obs, Mean” value [1, 21] was 15.5%, the “Cmax, Mean” value [1, 21] was 275 ng/mL and the “MRTInf_obs, Mean” value [1, 21] was 4.38 h. The “T1/2, Mean” value [1, 21] was 3.15 h, the “Tmax, Mean” value [1, 21] was 0.833 h and the solubility in water [2] was “approximately 19.2 mg/mL”. The “hygroscopicity (DVS)” value [3] was “slightly hygroscopic”, the “solid form after DVS test” value [3] was “does not change” and the “water absorbed in DVS” value [3] was “about 0.25 wt %”.
